Measurements as given in ChEMBL document CHEMBL1201861, “Genomics of Drug Sensitity in Cancer screening data, Wellcome Trust Sanger Institute”.

These molecules were tested on ALL-PO (assay: cells). Details: Homo sapiens, ALL-PO.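 Note: growth inhibition of ALL-PO cells, read out by a cell viability assay.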
Assay type: functional, cell-based, Homo sapiens
Description: SANGER: Inhibition of human ALL-PO cell growth in a cell viability assay.

Row | Structure (SMILES) | IC50 [nM]
1 | Cc1ccc(NC(=O)c2ccc(CN3CCN(C)CC3)cc2)cc1Nc1nccc(-c2cccnc2)n1 [IMATINIB] | > 2000

These molecules were tested on MPP-89 (assay: cells). Details: Homo sapiens, MPP-89.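 Note: growth inhibition of human MPP-89 cells, read out with a cell viability assay.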
Assay type: functional, cell-based, Homo sapiens
Description: SANGER: Inhibition of human MPP-89 cell growth in a cell viability assay.

Row | Structure (SMILES) | IC50 [nM]
2 | Cc1ccc(NC(=O)c2ccc(CN3CCN(C)CC3)cc2)cc1Nc1nccc(-c2cccnc2)n1 [IMATINIB] | > 2000

These molecules were tested on SH-4 (assay: cells). Details: Homo sapiens.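 Note: growth inhibition of SH-4 cells, read out with a cell viability assay.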
Assay type: functional, cell-based

Row | Structure (SMILES) | IC50 [nM]
3 | Cc1ccc(NC(=O)c2ccc(CN3CCN(C)CC3)cc2)cc1Nc1nccc(-c2cccnc2)n1 [IMATINIB] | > 2000

The molecules below were run on SK-MEL-1 (assay: cells). Details: Homo sapiens, SK-MEL-1.
Assay type: functional, cell-based, Homo sapiens
Description: SANGER: Inhibition of human SK-MEL-1 cell growth in a cell viability assay.

Row | Structure (SMILES) | IC50 [nM]
4 | Cc1ccc(NC(=O)c2ccc(CN3CCN(C)CC3)cc2)cc1Nc1nccc(-c2cccnc2)n1 [IMATINIB] | > 2000

What follows are molecules tested on COR-L88 (assay: cells). Details: Homo sapiens, COR-L88.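 Note: growth inhibition of COR-L88 cells, read out with a cell viability assay.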
Assay type: functional, cell-based, Homo sapiens
Description: SANGER: Inhibition of human COR-L88 cell growth in a cell viability assay.

Row | Structure (SMILES) | IC50 [nM]
5 | Cc1ccc(NC(=O)c2ccc(CN3CCN(C)CC3)cc2)cc1Nc1nccc(-c2cccnc2)n1 [IMATINIB] | > 2000

These molecules were tested on DMS-114 (assay: cells). Details: Homo sapiens, DMS-114.
Assay type: functional, cell-based, Homo sapiens

Row | Structure (SMILES) | IC50 [nM]
6 | Cc1ccc(NC(=O)c2ccc(CN3CCN(C)CC3)cc2)cc1Nc1nccc(-c2cccnc2)n1 [IMATINIB] | > 2000

What follows are molecules tested on LB771-HNC (assay: cells). Details: Homo sapiens.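 Note: growth inhibition of LB771-HNC human cells, read out with a cell viability assay.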
Assay type: functional, cell-based

Row | Structure (SMILES) | IC50 [nM]
7 | Cc1ccc(NC(=O)c2ccc(CN3CCN(C)CC3)cc2)cc1Nc1nccc(-c2cccnc2)n1 [IMATINIB] | > 2000

What follows are molecules tested on MOLT-16 (assay: cells). Details: Homo sapiens, MOLT-16.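 Note: growth inhibition of human MOLT-16 cells, read out with a cell viability assay.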
Assay type: functional, cell-based, Homo sapiens
Description: SANGER: Inhibition of human MOLT-16 cell growth in a cell viability assay.

Row | Structure (SMILES) | IC50 [nM]
8 | Cc1ccc(NC(=O)c2ccc(CN3CCN(C)CC3)cc2)cc1Nc1nccc(-c2cccnc2)n1 [IMATINIB] | > 2000

What follows are molecules tested on RXF 393 (assay: cells). Details: Homo sapiens, RXF 393.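 Note: growth inhibition of human RXF 393 cells, read out with a cell viability assay.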
Assay type: functional, cell-based, Homo sapiens
Description: SANGER: Inhibition of human RXF393 cell growth in a cell viability assay.

Row | Structure (SMILES) | IC50 [nM]
9 | Cc1ccc(NC(=O)c2ccc(CN3CCN(C)CC3)cc2)cc1Nc1nccc(-c2cccnc2)n1 [IMATINIB] | > 2000

The molecules below were run on COLO-684 (assay: cells). Details: Homo sapiens, COLO-684.
Assay type: functional, cell-based, Homo sapiens

Row | Structure (SMILES) | IC50 [nM]
10 | Cc1ccc(NC(=O)c2ccc(CN3CCN(C)CC3)cc2)cc1Nc1nccc(-c2cccnc2)n1 [IMATINIB] | > 2000

The molecules below were run on KE-37 (assay: cells). Details: Homo sapiens, KE-37.
Assay type: functional, cell-based, Homo sapiens
Description: SANGER: Inhibition of human KE-37 cell growth in a cell viability assay.

Row | Structure (SMILES) | IC50 [nM]
11 | Cc1ccc(NC(=O)c2ccc(CN3CCN(C)CC3)cc2)cc1Nc1nccc(-c2cccnc2)n1 [IMATINIB] | > 2000

These molecules were tested on HL-60 (assay: cells). Details: Homo sapiens, HL-60.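 Note: growth inhibition of human HL-60 cells, read out with a cell viability assay.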
Assay type: functional, cell-based, Homo sapiens
Description: SANGER: Inhibition of human HL-60 cell growth in a cell viability assay.

Row | Structure (SMILES) | IC50 [nM]
12 | Cc1ccc(NC(=O)c2ccc(CN3CCN(C)CC3)cc2)cc1Nc1nccc(-c2cccnc2)n1 [IMATINIB] | > 2000

What follows are molecules tested on GOTO (assay: cells). Details: Homo sapiens, GOTO.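 Note: growth inhibition of GOTO cells, read out by a cell viability assay.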
Assay type: functional, cell-based, Homo sapiens
Description: SANGER: Inhibition of human GOTO cell growth in a cell viability assay.

Row | Structure (SMILES) | IC50 [nM]
13 | Cc1ccc(NC(=O)c2ccc(CN3CCN(C)CC3)cc2)cc1Nc1nccc(-c2cccnc2)n1 [IMATINIB] | > 2000

Each molecule was assayed on GI-1 (assay: cells). Details: Homo sapiens, GI-1.
Assay type: functional, cell-based, Homo sapiens
Description: SANGER: Inhibition of human GI-1 cell growth in a cell viability assay.

Row | Structure (SMILES) | IC50 [nM]
14 | Cc1ccc(NC(=O)c2ccc(CN3CCN(C)CC3)cc2)cc1Nc1nccc(-c2cccnc2)n1 [IMATINIB] | > 2000

These molecules were tested on NCI-H1304 (assay: cells). Details: Homo sapiens, NCI-H1304.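 Note: growth inhibition of the cancer cell line, measured in a cell viability assay.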
Assay type: functional, cell-based, Homo sapiens
Description: SANGER: Inhibition of human NCI-H1304 cell growth in a cell viability assay.

Row | Structure (SMILES) | IC50 [nM]
15 | Cc1ccc(NC(=O)c2ccc(CN3CCN(C)CC3)cc2)cc1Nc1nccc(-c2cccnc2)n1 [IMATINIB] | > 2000

What follows are molecules tested on EW-11 (assay: cells). Details: Homo sapiens, EW-11.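 Note: growth inhibition of human EW-11 cells, measured with a cell viability assay.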
Assay type: functional, cell-based, Homo sapiens
Description: SANGER: Inhibition of human EW-11 cell growth in a cell viability assay.

Row | Structure (SMILES) | IC50 [nM]
16 | Cc1ccc(NC(=O)c2ccc(CN3CCN(C)CC3)cc2)cc1Nc1nccc(-c2cccnc2)n1 [IMATINIB] | > 2000

What follows are molecules tested on GR-ST (assay: cells). Details: Homo sapiens, GR-ST.
Assay type: functional, cell-based, Homo sapiens
Description: SANGER: Inhibition of human GR-ST cell growth in a cell viability assay.

Row | Structure (SMILES) | IC50 [nM]
17 | Cc1ccc(NC(=O)c2ccc(CN3CCN(C)CC3)cc2)cc1Nc1nccc(-c2cccnc2)n1 [IMATINIB] | > 2000

What follows are molecules tested on VA-ES-BJ (assay: cells). Details: Homo sapiens, VA-ES-BJ.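 Note: growth inhibition of the VA-ES-BJ cell line, read out by a cell viability assay.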
Assay type: functional, cell-based, Homo sapiens
Description: SANGER: Inhibition of human VA-ES-BJ cell growth in a cell viability assay.

Row | Structure (SMILES) | IC50 [nM]
18 | Cc1ccc(NC(=O)c2ccc(CN3CCN(C)CC3)cc2)cc1Nc1nccc(-c2cccnc2)n1 [IMATINIB] | > 2000

The molecules below were run on RCC10RGB (assay: cells). Details: Homo sapiens, RCC10RGB.
Assay type: functional, cell-based, Homo sapiens
Description: SANGER: Inhibition of human RCC10RGB cell growth in a cell viability assay.

Row | Structure (SMILES) | IC50 [nM]
19 | Cc1ccc(NC(=O)c2ccc(CN3CCN(C)CC3)cc2)cc1Nc1nccc(-c2cccnc2)n1 [IMATINIB] | > 2000

What follows are molecules tested on LAN-6 (assay: cells). Details: Homo sapiens, LAN-6.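 Note: growth inhibition of LAN-6 cells, determined with a cell viability assay.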
Assay type: functional, cell-based, Homo sapiens
Description: SANGER: Inhibition of human LAN-6 cell growth in a cell viability assay.

Row | Structure (SMILES) | IC50 [nM]
20 | Cc1ccc(NC(=O)c2ccc(CN3CCN(C)CC3)cc2)cc1Nc1nccc(-c2cccnc2)n1 [IMATINIB] | > 2000

The molecules below were run on LS-1034 (assay: cells). Details: Homo sapiens, LS-1034.
Assay type: functional, cell-based, Homo sapiens
Description: SANGER: Inhibition of human LS-1034 cell growth in a cell viability assay.

Row | Structure (SMILES) | IC50 [nM]
21 | Cc1ccc(NC(=O)c2ccc(CN3CCN(C)CC3)cc2)cc1Nc1nccc(-c2cccnc2)n1 [IMATINIB] | > 2000

Each molecule was assayed on NB6 (assay: cells). Details: Homo sapiens, NB6.
Assay type: functional, cell-based, Homo sapiens
Description: SANGER: Inhibition of human NB6 cell growth in a cell viability assay.

Row | Structure (SMILES) | IC50 [nM]
22 | Cc1ccc(NC(=O)c2ccc(CN3CCN(C)CC3)cc2)cc1Nc1nccc(-c2cccnc2)n1 [IMATINIB] | > 2000

Each molecule was assayed on C2BBe1 (assay: cells). Details: Homo sapiens, C2BBe1.
Assay type: functional, cell-based, Homo sapiens
Description: SANGER: Inhibition of human C2BBe1 cell growth in a cell viability assay.

Row | Structure (SMILES) | IC50 [nM]
23 | Cc1ccc(NC(=O)c2ccc(CN3CCN(C)CC3)cc2)cc1Nc1nccc(-c2cccnc2)n1 [IMATINIB] | > 2000

These molecules were tested on DJM-1 (assay: cells). Details: Homo sapiens, DJM-1.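 Note: growth inhibition of human DJM-1 cells, read out by a cell viability assay.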
Assay type: functional, cell-based, Homo sapiens

Row | Structure (SMILES) | IC50 [nM]
24 | Cc1ccc(NC(=O)c2ccc(CN3CCN(C)CC3)cc2)cc1Nc1nccc(-c2cccnc2)n1 [IMATINIB] | > 2000

What follows are molecules tested on HOP-62 (assay: cells). Details: Homo sapiens, HOP-62.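 Note: cell growth inhibition determined with a viability assay.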
Assay type: functional, cell-based, Homo sapiens

Row | Structure (SMILES) | IC50 [nM]
25 | Cc1ccc(NC(=O)c2ccc(CN3CCN(C)CC3)cc2)cc1Nc1nccc(-c2cccnc2)n1 [IMATINIB] | > 2000

These molecules were tested on TGBC24TKB (assay: cells). Details: Homo sapiens.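 Note: growth inhibition of human TGBC24TKB cells, read out with a cell viability assay.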
Assay type: functional, cell-based
Description: SANGER: Inhibition of human TGBC24TKB cell growth in a cell viability assay.

Row | Structure (SMILES) | IC50 [nM]
26 | Cc1ccc(NC(=O)c2ccc(CN3CCN(C)CC3)cc2)cc1Nc1nccc(-c2cccnc2)n1 [IMATINIB] | > 2000
